Test results: patent publication US11286263B2, “Macrocyclic fluorine substituted indole derivatives” (The Broad Institute, Inc., priority 2017, dated 2022)
Structures can show the parent of a compound that is named as a salt. Where two headings read alike, the source gives them in different places.

Tests used:
SUDHL10 [1] = assay: Induction of cytotoxicity, SUDHL10 (Assay 6); settings: read-out: IC50 Cytotox SUDHL10 [M] (median), SUDHL10 cells, 5 h, CellTiter-Glo
Description: In principle, compounds that induce apoptosis will concomitantly induce cell cytotoxicity. Therefore, cytotoxicity assays were run in parallel in SUDHL5 and SUDHL10 cells.
The different cell lines were plated in culture medium (RPMI 1640 [GIBCO #22400-089] supplemented with 10% Fetal Bovine Serum) at a density of 3,300 cells in 30 μl/well in a sterile, solid black, flat bottom, polystyrene, TC-treated 384-well microplate (Corning #3571) using Multidrop Combi Reagent Dispenser. As a control, medium without cells was also added to the plate. Cells were incubated in a humidified incubator at 37° C. overnight. On the next day, the cells were treated with compounds (stock solution, 10 mM in DMSO) using the HP D300 Digital Dispenser in a concentration range of 3.3×10e-5 M (33 μM) to 5×10e-9 M (5 nM) in a single-dot curve with at least 16 dilutions and a DMSO concentration of 0.33%. Rim wells were excluded. The cells were incubated for 5 h hours in a humidified incubator at 37° C. After this incubation, 30 μl of CellTiter-Glo® Luminescent Cell Viability reagent (Promega, G7573) was added to each well using the Multidrop Combi Reagent Dispenser, followed by 15 min incubation on a shaker at room temperature. Finally, luminescence was read at 0.1 ms, with a gain of 3000 using the PHERAstar FS microplate reader (BMG Labtech).
The Bella DRC Master Sheet was used to calculate IC50s, with fixed CI=0 and C0=1.

SUDHL5 [2] = assay: Antiproliferation assay SUDHL5 (Assay 7); assay type: cell-based
Description: (§1) Assessment of the Anti-Proliferative Effect of Compounds in Different Cell Lines
(§2) The impact of compounds on the proliferation of different cell lines was assessed using the CellTiter-Glo® Luminescent Cell Viability reagent from Promega (G7573).
(§3) In parallel, cells were plated in a reference (day 0) plate for time zero determination.
(§4) Rim wells were excluded. The cells were incubated for 72 h hours in a humidified incubator at 37° C. The day 0 plate was measured by adding 30 μL/well of CTG solution (CellTiter-Glo® Luminescent Cell Viability reagent, Promega G7573) to time zero wells in the reference plate followed by a 10 minutes incubation and luminescence reading at 0.1 ms. using the PHERAstar FS microplate reader (BMG Labtech).
(§5) After 72 h incubation, the treated plates were measured in the same way as the day 0 plate mentioned above.

SUDHL5 [3] = assay: Induction of caspase-3/7 activity, SUDHL5 (Assay 4); assay type: cell-based
Description: (§6) Induction of Caspase-3/7 Activity upon Treatment of Cells with Selected Compounds
(§7) The BH3-domain of MCL-1 sequesters pro-apoptotic proteins, thereby inhibiting apoptosis. In contrast, MCL-1 inhibitors are expected to antagonize this effect leading to an increase in apoptosis, which can be determined by measuring the activity of caspase-3/7.
(§8) The activity of caspase-3/7 was determined in DLBCL (Diffuse large B-cell lymphoma) cell lines (SUDHL5 and SUDHL10) upon treatment with different compounds, using the Caspase-Glo® 3/7 reagent from Promega (G8092).
(§9) Rim wells were excluded. The cells were incubated for 3 h hours in a humidified incubator at 37° C.
(§10) For the evaluation of the results, the background measured with “medium-only” was subtracted from all other values. […] The Bella DRC Master Sheet was used to calculate EC50s, with fixed C0=1 and Cl=plateau/max induction for the reference compound.

SUDHL5 [4] = assay: Induction of cytotoxicity, SUDHL5 (Assay 6); settings: read-out: IC50 Cytotox SUDHL5 [M] (median), SUDHL5 cells, 5 h, CellTiter-Glo
SUDHL10 [5] = assay: Induction of caspase-3/7 activity, SUDHL10 (Assay 4); assay type: cell-based
Description: as §6, §7, §8, §9, §10

MV-4-11 = assay: Antiproliferation assay MV-4-11 (Assay 7); assay type: cell-based; settings: MV-4-11 cells, CellTiter-Glo, single determinations, read-out: IC50 Antiproli MV-4-11
Description: as §1, §2, §3, §4, §5

AMO-1 = assay: Antiproliferation assay AMO-1 (Assay 7); assay type: cell-based; settings: AMO-1 cells, CellTiter-Glo, single determinations, read-out: IC50 Antiproli AMO-1
Description: as §1, §2, §3, §4, §5

MCL-1 = MCL-1 (Homo sapiens (Human), UniProt Q07820, K194A/K197A/R201A); assay: Protein-protein interaction assay MCL-1/Noxa BH3 peptide (MCL-1 assay), TR-FRET; assay type: binding; settings: MCL-1/Noxa BH3 peptide TR-FRET; median
Sequence of MCL-1 (Q07820 whole entry K194A/K197A/R201A, looked up): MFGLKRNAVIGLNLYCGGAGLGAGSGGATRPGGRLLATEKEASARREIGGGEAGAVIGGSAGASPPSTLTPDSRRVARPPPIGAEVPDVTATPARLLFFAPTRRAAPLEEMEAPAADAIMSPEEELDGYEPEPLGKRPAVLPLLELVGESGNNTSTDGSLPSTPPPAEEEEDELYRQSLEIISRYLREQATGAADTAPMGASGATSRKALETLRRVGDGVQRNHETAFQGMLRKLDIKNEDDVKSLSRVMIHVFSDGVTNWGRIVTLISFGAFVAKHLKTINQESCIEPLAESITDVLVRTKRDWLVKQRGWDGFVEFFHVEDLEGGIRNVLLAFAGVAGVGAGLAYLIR
Description: Protein-Protein Interaction Assay: MCL-1/Noxa BH3 Peptide (MCL-1 Assay)
The dose-dependent inhibition by the compounds described in this invention of the interaction between MCL-1 and the BH3 domain of Noxa (both human) was determined using a steady state binding competition assay with time-resolved fluorescence energy transfer (TR-FRET) readout. For that purpose MCL-1 (amino acids 173-321, N-terminal fused to Maltose Binding Protein (MBP) SEQ ID 1)) and a synthetic Noxa BH3-derived peptide of sequence Biotin-PEG2-PEG2-PAELEVE-Nva-ATQLRRFGDKLNFRQKLL-amide (SEQ ID 2) served as protein receptor and tracer ligand respectively. The MBP-MCL-1 was purchased from Beryllium (Bedford, Mass., USA). The expression and purification of this protein construct has been described elsewhere (DOI:10.1371/journal.pone.0125010). The Noxa BH3-derived peptide can be obtained from e.g. Biosyntan (Berlin, Germany).
In the assay 11 different concentrations of each compound (0.1 nM, 0.33 nM, 1.1 nM, 3.8 nM, 13 nM, 44 nM, 0.15 μM, 0.51 μM, 1.7 μM, 5.9 μM and 20 μM) were typically measured as duplicates in the same microtiter plate. For that, 100-fold concentrated DMSO solutions were prepared by serial dilutions (1:3.4) of a 2 mM stock solution in a clear, 384-well microtiter plate (Greiner Bio-One, Frickenhausen, Germany). From there, 50 nl were transferred in a dark test plate (Greiner Bio-One, Frickenhausen, Germany). The assay was initiated by addition of 2 μl of a 2,5-fold concentrated MBP-MCL-1 solution (usually for a 1 nM end concentration in 5 μl reaction volume) in aqueous assay buffer [50 mM Tris/HCl pH 7, 100 mM sodium chloride (NaCl), 50 mM potassium fluoride (KF), 0.005% Tween-20, 2 mM DTT, 0.1% bovine gamma globulin (BGG)] to the compounds in the assay plate. This was followed by a 10-minute incubation step at 22° C. for pre-equilibration of the putative complex between MBP-MCL-1 and the compounds. After that, 3 μl of a 1.67-fold concentrated solution (in assay buffer) consisting of Noxa BH3-derived peptide (1 nM end concentration) and TR-FRET detection reagents [1.67 nM anti-MBP-Eu cryptate and 1.67 nM streptavidin-XL665 (both from Cisbio Bioassays, Codolet, France)], were added.
The mixture was incubated in the dark for one hour at 22° C. and then overnight at 4° C. The formation of MCL-1/Noxa complexes was determined by measuring the resonance energy transfer of the anti-MBP-Eu-cryptate antibody to the streptavidin-XL665 present in the reaction. For that purpose, the fluorescence emission at 620 nm and 665 nm after excitation at 330-350 nm was measured in a TR-FRET measuring instrument, for instance a Rubystar or a Pherastar (both from BMG Lab Technologies, Offenburg, Germany) or a Viewlux (Perkin-Elmer). The ratio of the emission at 665 nm and at 622 nm was used as indicator of the amount of MCL-1/NOXA complexes present.
The resulting data (ratio) were normalized, taking 0% inhibition as the mean value of control measurements (usually 32 data points) where all reagents were included. In this case 50 nl DMSO were used instead of compounds. A 100% inhibition corresponded to the mean value of control measurements (usually 32 data points) where all reagents except MCL-1 were included. IC50 values were determined by regression analysis based on a 4 parameter equation (minimum, maximum, IC50, Hill; Y=Max+(Min−Max)/(1+(X/IC50)^Hill) using the Screener Software (Genedata).

A2780 = assay: Antiproliferation assay A2780 (Assay 7); assay type: cell-based; settings: A2780 cells, CellTiter-Glo, single determinations, read-out: IC50 Antiproli A2780
Description: as §1, §2, §3, §4, §5

[6] = SUDHL5 cells, 72 h, CellTiter-Glo; median; read-out: IC50 Antiproli SUDHL5 [M] (median)
[7] = SUDHL5 cells, 3 h, Caspase-Glo 3/7; median
[8] = SUDHL10 cells, 3 h, Caspase-Glo 3/7; median
[9] = 72 h, trifluoroacetic acid salt

SMILES	IC50 (SUDHL5 [2]; [6]) [M]	EC50 (SUDHL5 [3]; [7]) [µM]	EC50 (SUDHL10 [5]; [8]) [µM]	IC50 (MV-4-11; 72 h) [µM]	IC50 (MCL-1) [µM]	IC50 (SUDHL10 [1]) [M]	IC50 (SUDHL5 [4]) [M]	IC50 (AMO-1; 72 h) [µM]	IC50 (SUDHL10 [1]; Homo sapiens, SU-DHL10, 5 h) [M]	IC50 (SUDHL5 [4]; Homo sapiens, SU-DHL-5, 5 h) [M]	IC50 (MV-4-11; Homo sapiens, MV4-11, 72 h) [µM]	other results
Cc1c2c(nn1C)COCCCCn1c(C(=O)O)c(CCCOc3ccc(F)c4ccccc34)c3ccc(F)c-2c31 (single isomer, unassigned; enantiomer 2) [Example 17, 4-fluoro-7-{3-[(4-fluoronaphthalen-1-yl)oxy]propyl}-2,3-dimethyl-2,10,11,12,13,15-hexahydro-pyrazolo[4′,3′:9,10][1,6]oxazacycloundecino[8,7,6-hi]indole-8-carboxylic acid (enantiomer 2)]	1.1e-05	> 33	> 33	20.8	0.06	> 3.3e-05	> 3.3e-05	> 33				
Cc1c2c(nn1C)CNCCCCn1c(C(=O)O)c(CCCOc3cccc4ccccc34)c3ccc(F)c-2c31 (racemic) [Example 47, (rac)-4-fluoro-2,3-dimethyl-7-[3-(1-naphthyloxy)propyl]-10,11,12,13,14,15-hexahydro-2H-pyrazolo[3′,4′:8,9][1,6]diazacycloundecino[10,11,1-hi]indole-8-carboxylic acid trifluoroacetic acid salt]					0.00082				5.6e-06	2.2e-06	1.02	IC50 (SUDHL5 [2]; Homo sapiens, SU-DHL-5; SUDHL5 cells, 72 h, CellTiter-Glo; median; read-out: IC50 Antiproli SUDHL5 [M] (median)): 2.1e-06 M; EC50 (SUDHL5 [3]; Homo sapiens, SU-DHL-5; SUDHL5 cells, 3 h, Caspase-Glo 3/7; median): 1.4 µM; EC50 (SUDHL10 [5]; Homo sapiens, SU-DHL10; SUDHL10 cells, 3 h, Caspase-Glo 3/7; median): 5 µM; IC50 (MV-4-11; [9]): 1.32 µM; IC50 (A2780; [9]): 18.9 µM; IC50 (A2780; Homo sapiens, A2780, 72 h): 20.9 µM
Cc1c2c(nn1C)COCCCCn1c(C(=O)O)c(CCCOc3cccc4ccccc34)c3ccc(F)c-2c31 (single isomer, unassigned; enantiomer 2) [Example 4, 4-fluoro-2,3-dimethyl-7-[3-(naphthalen-1-yloxy)propyl]-2,10,11,12,13,15-hexahydropyrazolo-[4′,3′:9,10][1,6]oxazacycloundecino[8,7,6-hi]indole-8-carboxylic acid-N-ethylethanamine salt (enantiomer 2)]	> 3.3e-05	> 33			0.065		> 3.3e-05					IC50 (MV-4-11; 72 h, listed as 04): > 33 µM; IC50 (A2780; 72 h, listed as 04): > 33 µM

More lines, main results first:

IC50 (SUDHL5 [2]; [6]) [M]	EC50 (SUDHL5 [3]; [7]) [µM]	EC50 (SUDHL10 [5]; [8]) [µM]	IC50 (MV-4-11; 72 h) [µM]	IC50 (MCL-1) [µM]	SMILES	IC50 (SUDHL10 [1]) [M]	IC50 (SUDHL5 [4]) [M]	IC50 (AMO-1; 72 h) [µM]	IC50 (SUDHL10 [1]; Homo sapiens, SU-DHL10, 5 h) [M]	IC50 (SUDHL5 [4]; Homo sapiens, SU-DHL-5, 5 h) [M]	IC50 (MV-4-11; Homo sapiens, MV4-11, 72 h) [µM]	other results
1.5e-05	> 33	> 33	12.5	0.11	CCc1nn(C)c2c1-c1c(F)ccc3c(CCCOc4ccc(F)c5ccccc45)c(C(=O)O)n(c13)CCCCOC2 (single isomer, unassigned; enantiomer 2) [Example 43, 3-ethyl-4-fluoro-7-{3-[(4-fluoronaphthalen-1-yl)oxy]propyl}-1-methyl-1,10,11,12,13,15-hexahydropyrazolo[4′,3′:9,10][1,6]oxazacycloundecino[8,7,6-hi]indole-8-carboxylic acid (enantiomer 2)]	> 3.3e-05	> 3.3e-05	> 33				
1.2e-05	> 33	> 33	13.8	0.065	CCc1c2c(nn1C)COCCCCn1c(C(=O)O)c(CCCOc3ccc(F)c4ccccc34)c3ccc(F)c-2c31 (single isomer, unassigned; enantiomer 2) [Example 28, 3-ethyl-4-fluoro-7-{3-[(4-fluoronaphthalen-1-yl)oxy]propyl}-2-methyl-2,10,11,12,13,15-hexahydropyrazolo[4′,3′:9,10][1,6]oxazacycloundecino[8,7,6-hi]indole-8-carboxylic acid-N-ethylethanamine salt (enantiomer 2)]	> 3.3e-05	1.8e-05	> 33				
			15	0.002	CCc1nn(C)c2c1-c1c(F)ccc3c(CCCOc4ccc(F)c5ccccc45)c(C(=O)O)n(c13)CCCCOC2 (racemic) [Example 41, (rac)-12-ethyl-13-fluoro-1-(3-((4-fluoronaphthalen-1-yl)oxy)propyl)-10-methyl-4,5,6,7,9,10-hexahydropyrazolo[4′,3′:9,10][1]oxa[6]azacycloundecino[8,7,6-hi]indole-2-carboxylic acid]			12.8	7.1e-06	3e-06	11	IC50 (SUDHL5 [2]; Homo sapiens, SU-DHL-5, 72 h, SUDHL5 cells, CellTiter-Glo, median, read-out: IC50 Antiproli SUDHL5 [M] (median)): 2e-06 M; EC50 (SUDHL5 [3]; Homo sapiens, SU-DHL-5, 3 h, SUDHL5 cells, Caspase-Glo 3/7, median): 2.2 µM; EC50 (SUDHL10 [5]; Homo sapiens, SU-DHL10, 3 h, SUDHL10 cells, Caspase-Glo 3/7, median): 14 µM; IC50 (AMO-1; Homo sapiens, AMO1, 72 h): 15.2 µM
